The record followed here is patent US10548894B2, “Combination therapy” (Array BioPharma Inc., priority 2013, dated 2020).

For one assay, the system named is A-375 cells. As to the kind of experiment: ATP-based CTG (Cell Titer Glo) cell viability assay, 72 h. As to conditions: Homo sapiens, A-375 parent, single agent. As to the method: (§1) Compound stocks are prepared in DMSO at a final concentration of 10 mM. Working stocks are serially diluted in the appropriate cell culture medium in 3-fold increments to achieve final assay concentrations ranging from 2.7 μM to 1.2 nM.
(§2) A-375 and WM-266-4 cells were purchased from American Type Culture Collection (ATCC). The A-375 cells were cultured in DMEM medium (ATCC) and the WM-266-4 cells were cultured in EMEM medium (ATCC) both supplemented with 10% fetal bovine serum (Gibco) and incubated at 37° C./5% CO2. The cell lines engineered to express commonly occurring alleles indicative of resistance were acquired from Novartis-Emeryville. These resistant models include, A-375 cells expressing mutant MEK1P124L, truncated p61-BRAFV600E, or mutant NRASQ61K, and WM-266-4 cells expressing mutant MEK1C121S, truncated p61-BRAFV600E, or mutant NRASQ61K. These cells were cultured in the appropriate parental medium with selection marker G418 and in the presence of 5 uM LFE158 (MEK mutants) or LIH720 (truncated p61-BRAFV600E).
(§3) For screening, cells were seeded in 80 ul of medium in 384-well plates (Thermo Scientific, cat#4332) at 500 (A-375) or 750 (WM-266-4) cell densities per well using a MultiDrop Combi (Thermo-Fisher) with an 8-channel standard cassette. To promote an even distribution of cells across the entire well, cells were briefly centrifuged at 1000 RPM and incubated at room temperature 30 minutes. All plates were incubated at 37° C., 5% CO2 for 24 h prior to compound addition. Compound stock was freshly prepared in the appropriate culture medium, and added using a PAA robot equipped with a 200n1 pin tool. In a minimum of three replicate wells, single agent and combination effects after 72 hours, were assessed by both quantification of cellular ATP levels via Cell Titer Glo (Promega) according to the manufacturer's protocol and by microscopy imaging. For imaging, cells were fixed to the plates and permeabilized with a solution of 10% PFA, 0.3% TX-100 in PBS via a WellMate dispenser with controlled dispensing speeds. Cell nuclei were stained with Hoechst 33342 (H3570, Invitrogen), and all necessary washing steps were performed by a BioTek washer.
(§4) Data comprised triplicate measurements for each treatment (compound) condition, 42 replicates of DMSO-treated wells, and duplicates of Staurosporin-treated wells. The data was normalized to the median of the DMSO measurements and summarized by calculating the median of the triplicates. Data was imported into Chalice to calculate compound synergies.
A general note: ATP-based viability assays read luminescence as a measure of living cells.

Assay [1] concerns A-375 cells expressing mutant NRASQ61K. The description is as above. The conditions noted are these: Homo sapiens, A-375 NRASQ61K, single agent. As to the method:
as §1, §2, §3, §4

The subject of a further assay is WM-266-4 cells. Described as above. The conditions noted are these: Homo sapiens, WM-266-4 parent, single agent. On the procedure: as §1, §2, §3, §4
Assay [2] relates to WM-266-4 cells expressing mutant MEK1C121S. Described as above. As to conditions: Homo sapiens, WM-266-4 MEK1C121S, single agent. As to the method: as §1, §2, §3, §4
The test system of assay [3] is A-375 cells expressing mutant MEK1P124L. Described as above. As to conditions: Homo sapiens, A-375 MEK1P124L, single agent. As to the method: as §1, §2, §3, §4
The next assay relates to COLO 741. As to the kind of experiment: xCELLigence real-time impedance growth assay. As to conditions: Formula (I) 500 nM, Compound H 1 uM. The class given is cell-based. As to the method: (§5) Shown is the growth in real time of the (Top A) COLO 741 and (Bottom B) SK-MEL-5 cell lines as measured using the xCELLigence impedance-based cell analyzer as discussed in Example 5. Where indicated FGF2 and Compound H were supplemented to the media at concentrations of 100 ng/ml, and 1 uM, respectively. The Compound of Formula (I) was used at 500 nM in (A) and 100 nM (B).
(§6) For CellTiter-Glo™ assays, cells were dispensed into tissue culture treated 96-well plates (Costar, catalog number 3904) with a final volume of 80 μL of medium and at density of 3000 cells per well. 12 to 24 hrs after plating, 20 μL of each compound dilution series were transferred to plates containing the cells, resulting in compound concentration ranges of 2700 nM to 3.7 nM by 3-fold dilutions and a final DMSO concentration of 0.16%. The total volume in each well was […]. Plates were incubated for 72 hrs and the effects of compounds on cell proliferation was determined using the CellTiter-Glo™ Luminescent Cell Viability Assay (CTG, Promega) and a Victor™ X4 plate reader (Perkin Elmer). For real-time growth assays cells were seeded into xCELLigence E-plates (Roche catalogue number 05232368001) at a density of 4000 cells per well in a total of 90 μl of media and 24 hrs after plating, 11 μl of media with or without compound was added to the wells. 2-4 replicate wells were plated for all cell lines and treatment groups with the exception of LGX818+FGF2 treated COLO 741 cells (N=1). Where indicated final concentrations of compounds and growth factor were 1 uM for Compound H, 100 ng/ml for FGF2, and either 100 nM (SK-MEL-5) or 500 nM (COLO 741) for the Compound of Formula (I). Cells were continuously monitored every two hours for seven days with the xCELLigence real-time impedance based cell analyzer. Impedance was measured using the electrodes on the E-plates, with increasing surface area coverage of cells creating greater electrode impedance. […] In all cases cell index values were normalized to a timepoint immediately following the addition of compound.
(§7) To determine whether rescue of BRAFV600E melanoma cell lines by FGF2 was dependent on FGFR signaling, we examined whether the selective FGFR inhibitor Compound H could prevent FGF2-mediated rescue. Two cell lines which were rescued to varying degrees by FGF2 (COLO 741, and SK-MEL-5, Table 8-1) were cultured in media containing the Compound of Formula (I) and FGF2 either in the presence or absence of Compound H and growth measured in real time.

Another assay relates to SK-MEL-5. Put plainly: xCELLigence real-time impedance growth assay. The format is cell-based. The conditions noted are these: Formula (I) 100 nM, Compound H 1 uM. As to the method:
as §5, §6, §7

As for `COC(=O)N[C@@H](C)CNc1nccc(-c2cn(C(C)C)nc2-c2cc(Cl)cc(NS(C)(=O)=O)c2F)n1` [Compound of Formula (I)], the IC50 with A-375 cells was determined as 4 nM; in assay [1], 134 nM; with WM-266-4 cells it was 2 nM; in assay [2], 35 nM; in assay [3], 333 nM. Also, the “growth in real time (cell index)” value in the assay with COLO 741 (COLO 741, FGF2 100 ng/ml) is “growth suppression was abrogated”; in the assay with COLO 741 (COLO 741, absence of FGF2) it was “suppressed the growth”; in the assay with SK-MEL-5 (SK-MEL-5, FGF2 100 ng/ml), “growth suppression was abrogated”; with SK-MEL-5 (SK-MEL-5, absence of FGF2), “suppressed the growth”.

Broadly, the IC50 is the concentration needed to halve the response being measured.
